Measured values taken from ChEMBL document CHEMBL3085656, “A medicinal chemistry perspective for targeting histone H3 lysine-79 methyltransferase DOT1L” (J Med Chem, 2013).

How the values were obtained:
cells [1] = conditions: Homo sapiens, MLL
THP-1 = assay: cells; conditions: Homo sapiens
MV4-11 = assay: cells; conditions: Homo sapiens
cells [2] = conditions: Homo sapiens, MLL; remark: listed apart in the source
MOLM-13 = assay: cells; conditions: Homo sapiens

Structure (SMILES): CC(C)N(CCCNC(=O)Nc1ccc(C(C)(C)C)cc1)C[C@H]1O[C@@H](n2ccc3c(N)ncnc32)[C@H](O)[C@@H]1O
- EC50 (cells [1]): 700 nM
- EC50 (THP-1): 4 nM
- EC50 (MV4-11): 4 nM
- EC50 (cells [2]): 700 nM
- EC50 (MOLM-13): 4 nM

Structure (SMILES): CC(C)N(C[C@H]1O[C@@H](n2cnc3c(N)ncnc32)[C@H](O)[C@@H]1O)[C@H]1C[C@@H](CCc2nc3cc(C(C)(C)C)ccc3[nH]2)C1 [PINOMETOSTAT]
- EC50 (THP-1): 4 nM
- EC50 (MV4-11): 4 nM
- EC50 (MOLM-13): 4 nM
